The data set is described as follows: Human HepG2 cell viability assay in 384 well format. The format is toxicity, cell-based. Also on record: dose 125 nL, time 70.5 hour; concentration not given beside the values. As to conditions: HepG2 cells, read-out: Inhibition.

Molecules are shown by their SMILES.

`Fc1ccc(C2CCCN2Cc2nc(Cc3ccccc3F)no2)cc1` (centres undefined): the cytotoxicity at 70.5 h stood at 0.991%.
The result for `CCOC(=O)c1coc(N2CCN(Cc3cc(C)cc(C)c3)C(=O)C2)n1` reads -5.18%.
`CN(Cc1cc(-c2cccnc2)no1)C(=O)[C@@H]1CSCN1C`: the cytotoxicity at 70.5 h is -8.97%.
The result for `O=C(c1cccc(Cl)c1)C1CCCN(c2nnc(C3CCC3)o2)C1` (centres undefined) reads 5.93%; that for `Cc1csc(CN(C)CCOc2ccccc2)n1`, 20.8%; that for `Cc1ccccc1CN(CCN(C)C)Cc1ncc[nH]1`, -7.18%.
The result for `Cc1ncsc1CCC(=O)NCc1cc2n(n1)CCNC2` reads -8.17%.
With `CC(C)Oc1cc(N2CCC3(CC2)[C@H](O)C[C@@H]3O)nc(N)n1`, the cytotoxicity at 70.5 h was -1.26%.
Turning to `CN1CCC(c2nnc(CN3CCCCC3)n2C)CC1`, the cytotoxicity at 70.5 h was -9.09%.
The result for `Cc1nc(C)n(CC(C)C(=O)N2CCC(N3CCC(O)CC3)CC2)n1` (centres undefined) reads -3.14%; that for `CC(=O)c1cc(CN2C[C@@H](NS(=O)(=O)N(C)C)[C@H](C(C)C)C2)cs1`, 7.82%; that for `CCc1cc(NCC(O)CN2CCCCC2)ncn1` (centres undefined), -4.61%.
The result for `Nc1nc(CNc2nccc(CCC(F)(F)F)n2)cs1` reads -7.96%; that for `N[C@@H]1CCN(Cc2ccc(-c3nc(-c4cccnc4)cc(=O)[nH]3)cc2)C1`, -10.8%.
As to `O=C(c1cnn2ccccc12)N1CCCC(OCc2ccccn2)C1` (centres undefined), the cytotoxicity at 70.5 h is -6.94%.
The result for `Cc1cc2nc(C(C)C)cc(N(C)CC3CCCN3C)n2n1` (centres undefined) reads -10.7%; that for `CNc1ccnc(N2C[C@@H](C)[C@](O)(C3CC3)C2)n1`, -3.1%; that for `Cn1cnnc1CN1CCC2(CCCN(C3CCCC3)C2=O)C1` (centres undefined), 1.29%.
The result for `CCN(C)C(=O)[C@H]1C[C@@](CC(C)C)(C(=O)OC)N(C)[C@H]1c1cccnc1` reads -3.05%.
As for `COCCC1(CO)CCCN(Cc2ccc(C(F)(F)F)nc2)C1` (centres undefined), the cytotoxicity at 70.5 h is -1.12%.
The result for `CSC(C)CCN1CCCn2nc(CNC(=O)C3CCC3)cc2C1` (centres undefined) reads 0.861%; that for `CC(c1nccs1)n1cc(-c2cc(CN3CCCCC3)cs2)nn1` (centres undefined), -4.83%; that for `O=C(CCN1CCCO1)NC1CCCN(CC2CCCCC2)C1` (centres undefined), -2.41%.
The result for `O=C(O)c1ccccc1C1CCN(Cc2ccc(-c3cc[nH]n3)o2)C1` (centres undefined) reads -2.33%.
The result for `Cc1cc(C[C@@H]2COC[C@@H]2NC(=O)CNC(=O)N(C)C)on1` reads 9.05%; that for `COc1ccc(C(=O)C2CCCN(c3cc(N)ncn3)C2)c(C)c1` (centres undefined), -10.4%; that for `CSCCC(O)C(=O)N1CCN(Cc2cccc(Cl)c2)CC1` (centres undefined), -12.9%.
For the compound `CN(Cc1cc(-c2ccccc2)no1)C(=O)CNS(C)(=O)=O`, the cytotoxicity at 70.5 h amounted to 23.3%.
As for `OC1(CNCCCN2CCCc3ccccc32)CNCCOC1` (centres undefined), the cytotoxicity at 70.5 h was -13%.
Take `CN(C)CC(=O)NC1CC(=O)N(CCc2ccccc2)C1` (centres undefined): the cytotoxicity at 70.5 h is -4.7%.
The result for `COCCn1cncc1CN1CCCC(C(=O)Cc2ccccc2)C1` (centres undefined) reads 0.198%.
The result for `CC(C)(C)c1nc(CN(Cc2cccnc2)C2CN3CCC2CC3)no1` (centres undefined) reads -1.01%; that for `COCCN1C[C@H]2CC[C@@H]1CN(Cc1ccc3ccccc3n1)C2`, -5.95%.
For `CN(Cc1ccccc1)c1cnn(CC2COCCO2)c(=O)c1` (centres undefined), the cytotoxicity at 70.5 h was -2.99%.
The result for `O=C(O)C(c1ccc2c(c1)OCCO2)N1CCSCC1` (centres undefined) reads -3.24%.
The result for `CNc1nc(C)c(C(=O)N2CCCCC2CCc2ccc(O)cc2)s1` (centres undefined) reads -8.49%.
The result for `CC(C)Oc1ccc2c(NC(=O)CNC(N)=O)nn(CC(F)(F)F)c2c1` reads 3.1%.
For the compound `COc1ccccc1OC1(C(=O)O)CCN(c2ccccn2)CC1`, the cytotoxicity at 70.5 h is 1.96%.
The result for `Cc1cccc2sc(NC(=O)CN3CCCC4(CC3)CNC(=O)O4)nc12` (centres undefined) reads -7.84%; that for `CCn1c(C2CCCNC2)nn(CCn2cncn2)c1=O` (centres undefined), -8.3%.
The result for `CCN(C)C[C@@H]1CN(Cc2cccc(Cl)c2)C[C@@H]1CO` reads -11.5%.
The result for `CC(C)c1nccc(C2(c3ccccc3Cl)CCNCC2)n1` reads 10.5%.
As to `CCn1c(C)nnc1SCCNC(=O)c1cnc(C(C)(C)C)nc1O`, the cytotoxicity at 70.5 h was found to be 14.5%.
The result for `COCCn1cnnc1CNc1cc(C)nc2c(C)c(C)nn12` reads -5.61%.
The result for `Cc1noc(C)c1C1CCCN1C(=O)c1cn2ccsc2n1` (centres undefined) reads -3.13%.
The result for `CCCSc1nc(O)c(CC)c(=O)n1-c1ccccc1` reads -6.46%; that for `CC[C@H]1COCCN1C(=O)c1cnc(-c2ccccc2)nc1C`, -5.37%; that for `Cc1cccc(C(=O)N2CC(=O)N(c3ccccc3Cl)CC2C)n1` (centres undefined), 49.8%.
Take `c1cncc(NCCNC2CSCCSC2)c1`: the cytotoxicity at 70.5 h came to 5.88%.
Regarding `O=c1c2ccccc2cnn1Cc1cncn1C1CC1`, the cytotoxicity at 70.5 h was -6.14%.
`Cn1ccnc1SCCNc1ccnc(C(F)(F)F)n1`: the cytotoxicity at 70.5 h is -2.76%.
The result for `Cc1nnc(CN(C)C2CCN(c3cccc(-c4cscn4)c3)CC2)o1` reads -3.22%; that for `O=C1[C@@H]2CN(c3ncnc4sccc34)C[C@]2(C(=O)O)CN1CC1CC1`, -11.3%; that for `Cc1nn(C)cc1-c1ccnc(N(C)Cc2cccs2)n1`, 2.52%.
The result for `CCC[C@H]1CN(S(C)(=O)=O)C[C@@H]1NC(=O)CCOCC` reads -2.88%; that for `CN1CCCN(c2nc(C3CCCC3)nc3c2cnn3C)CC1`, 14.5%.
The result for `CC(Nc1nccc(CCC(F)(F)F)n1)c1nc(-c2ccncc2)no1` (centres undefined) reads -13.3%; that for `CN1C(=O)C2(CCCN(C(=O)c3ccc(=O)n(C)n3)C2)c2ccccc21` (centres undefined), 0.808%; that for `CC(=O)N1CCCC(C(=O)N2Cc3nc(C)n(C)c(=O)c3C2)C1` (centres undefined), -3.08%.
On to `Cn1cc(CN2CCC[C@]3(C(=O)O)CN(c4cnccn4)CC[C@@H]23)cn1`, for which the cytotoxicity at 70.5 h was -2.41%.
The result for `CN(Cc1cccc(-n2cccn2)c1)Cc1cccs1` reads -11%.
The result for `COCc1c(C(=O)N2CCCC(C(=O)c3nccn3C)C2)noc1C` (centres undefined) reads -1.47%.
The result for `CCc1nc(C)sc1CNC1CCN(Cc2ccccc2)C1` (centres undefined) reads 8.22%.
`CC[C@H]1CN(C(=O)c2cnc(N3CCN(C)CC3)nc2C)CC[C@@]1(C)O`: the cytotoxicity at 70.5 h is -7.86%.
The result for `COc1ccc(C(=O)C2CCCN(Cc3ccncc3)C2)cc1OC` (centres undefined) reads -3.65%.
The result for `Cc1nnsc1C(=O)N1CCN(CC2CC2)[C@@H]2CS(=O)(=O)C[C@@H]21` reads -13.8%; that for `O=C(NC1CC1)C1CNCCN1C(=O)COc1ccc2c(c1)OCO2` (centres undefined), -5.08%.
The result for `CN(CCCc1cnn(C)c1)C(=O)C1CCN(C(=O)C2CCC2)CC1` reads -10.7%.
With `CCC(CC)NCC(C)Oc1cccnc1` (centres undefined), the cytotoxicity at 70.5 h was -2.86%.
The result for `CN1CC=C(CCN(C)C(=O)CCc2ccccc2)CC1` reads -6.34%; that for `Cc1cccc(SC2CCN(C(=O)CCCS(N)(=O)=O)CC2)c1`, -6.67%.
The result for `Cc1cncc(C(=O)N2CCN(c3cnn(C)c(=O)c3)CC2)c1` reads -6.5%; that for `CC1=C(CCN2CCCC(O)C2)C(C)(C)CCC1` (centres undefined), 18.9%; that for `CSc1cccc(CN2CCn3nc(CNC(C)=O)cc3C2)c1`, 5.2%.
The result for `COc1c(F)cc(F)cc1-c1nc2c([nH]1)CCNC2` reads 14.9%; that for `Cc1ccc2occ(CN3CCN(c4ncccn4)CC3)c(=O)c2c1`, 29.4%.
Take `N[C@@H]1CC[C@@H](NC(=O)c2ccccc2OC(F)(F)C(F)F)C1`: the cytotoxicity at 70.5 h turned out to be 16%.
The result for `CC(C)=CCN1C[C@@H](C(=O)O)C[C@H](C(=O)Nc2ccc(C)nc2)C1` reads -8.07%.
The result for `Cc1ccc(S(=O)(=O)N2C[C@H](C3CC3)[C@@H](N)C2)cc1F` reads -3.15%.
As for `O=C(CC1COCCN1)NCCc1noc(-c2ccccc2)n1` (centres undefined), the cytotoxicity at 70.5 h is -2.33%.
In the case of `Cc1cccc(C)c1NC(=O)NCC1CCCN(C2CCOCC2)C1` (centres undefined), the cytotoxicity at 70.5 h is -8.66%.
The result for `CCc1nnc(N[C@H](C)c2cccc(OC)c2)o1` reads -20.2%; that for `CCCc1nc(C(=O)N2CCN(S(=O)(=O)CC)CC2)cs1`, 10.2%.
The result for `O=C(COCc1ccccc1)N1CCCn2cncc2C1` reads -4.83%.
The result for `CCN1CCC(NN2CCN(C)CC2)CC1` reads -4.47%; that for `O=C(O)[C@@]12CN(c3cnccn3)C[C@@H]1CN(C1CCCC1)C2`, -7.64%; that for `COc1coc(CN2CCCC(CCc3ccccc3C)C2)cc1=O` (centres undefined), 2.52%.
Take `CCOc1ccc(C(=O)N2Cc3cnc(CC)nc3C2)o1`: the cytotoxicity at 70.5 h is -3.48%.
On to `CCCN1CCC(NN2CCN(C)CC2)CC1`, for which the cytotoxicity at 70.5 h was -6.76%.
The result for `CCCN1CCC(Nc2cc(-c3ccccc3)ccc2OC)CC1` reads 0.639%; that for `CCc1nc(N2CCN(c3ncccc3C#N)CC2)c2cnn(C)c2n1`, 22%; that for `CNc1ncc(CN(C)c2nccc(CCC(F)(F)F)n2)cn1`, -2.35%.
The result for `Cc1nc(CN(C)Cc2nc(-c3ccccc3)no2)co1` reads -1.63%; that for `CCn1c(CC2CCN(C(=O)C3CCOC3)CC2)nn(C)c1=O` (centres undefined), 32.2%; that for `COc1cc(F)ccc1C(C(=O)O)N(C)CCN1CCOCC1` (centres undefined), 15.1%.
The result for `COc1ccccc1-n1cc(C(=O)NCCn2nc(C)nc2C)cn1` reads -9.92%; that for `CC(Cn1cncn1)NCc1n[nH]c2c1CCCCC2` (centres undefined), -10.2%.
For `CN(C)C(C(=O)N1CCC(c2ncc[nH]2)CC1)c1ccc2c(c1)OCO2` (centres undefined), the cytotoxicity at 70.5 h was -5.4%.
The result for `COc1ccccc1N1CCN(C(=O)Cn2nc(C)cc2C)CC1(C)C` reads -14.1%.

These data come from ChEMBL document CHEMBL3507680, “University of Dundee, Gates Library screen for HepG2 cell viability”.
